Common to all, as to settings: bmdc
A short description of data set [1]: Cytotoxicity against wild-type C57BL/6 mouse BMDCs assessed as cell viability by MTT assay. For orientation: Tetrazolium assays rely on reduction of a dye to a coloured formazan, in cell work by metabolically active cells.
Data set [2] in a line: Antiinflammatory activity in wild-type C57BL/6 mouse BMDCs assessed as inhibition of IL-12 p40 production incubated for 1 hr prior to LPS challenge measured after 16 hrs by ELISA. The class given is functional.
Data set [3] is described as follows: Antiinflammatory activity in wild-type C57BL/6 mouse BMDCs assessed as inhibition of IL-6 production incubated for 1 hr prior to LPS challenge measured after 16 hrs by ELISA. The class given is functional. Background: An ELISA detects its analyte on a solid surface through an enzyme-linked reagent.
Data set [4] can be described thus: Antiinflammatory activity in wild-type C57BL/6 mouse BMDCs assessed as inhibition of TNFalpha production incubated for 1 hr prior to LPS challenge measured after 16 hrs by ELISA. The class given is functional.

Bounds are passed on as bounds.

By IC50 is commonly meant the concentration that gives 50% inhibition.

Consider `CC(=O)c1[nH]ccc1O[C@@H]1O[C@H](C)[C@@H](O[C@H]2OC[C@H](O)[C@H](O)[C@H]2O[C@@H]2O[C@H](C)[C@H](O)[C@H](O[C@@H]3O[C@@H](CO)[C@H](O)[C@H]3O)[C@H]2O)[C@H](O)[C@H]1O[C@@H]1O[C@H](C)[C@@H](O)[C@H](O)[C@H]1O` [ASTEBATHERIOSIDE B], for which the Activity result in data set [1] was “Non-toxic”. In addition, the IC50 in data set [2] is 36.4 µM.
The matching figures for `CC(=O)c1[nH]ccc1O[C@@H]1O[C@H](C)[C@@H](O)[C@H](O)[C@H]1O[C@@H]1O[C@H](C)[C@@H](O)[C@H](O)[C@H]1O` [ASTEBATHERIOSIDE C]: “Non-toxic” and 31.6 µM.
Take `CC(=O)c1[nH]ccc1O[C@@H]1O[C@H](C)[C@@H](O[C@@H]2O[C@H](C)[C@H](O)[C@H](O[C@@H]3O[C@H](C)[C@H](O)[C@H](O[C@@H]4O[C@@H](CO)[C@H](O)[C@H]4O)[C@H]3O)[C@H]2O)[C@H](O)[C@H]1O[C@@H]1O[C@H](C)[C@@H](O)[C@H](O)[C@H]1O` [ASTEBATHERIOSIDE A]: the Activity entry in data set [1] is “Non-toxic”. The 50% inhibitory concentration (IC50) in data set [3], in data set [2] and in data set [4] was > 50 µM throughout.
As for `CC(=O)c1occc1O[C@@H]1O[C@H](C)[C@@H](O[C@@H]2O[C@H](C)[C@H](O)[C@H](O[C@@H]3O[C@H](C)[C@H](O)[C@H](O)[C@H]3O)[C@H]2O)[C@H](O)[C@H]1O[C@@H]1O[C@H](C)[C@@H](O)[C@H](O)[C@H]1O` [ASTEBATHERIOSIDE D], the Activity result in data set [1] was “Non-toxic”. Also, the IC50 in data set [2] was 22.8 µM.
Take `C[S+]([O-])c1ccc(-c2nc(-c3ccc(F)cc3)c(-c3ccncc3)[nH]2)cc1` (stereo not given) [SB-203580]: the 50% inhibitory concentration (IC50) in data set [2] was 5 µM.
On to `CC(=O)c1[nH]ccc1O[C@@H]1O[C@H](C)[C@@H](O[C@@H]2O[C@H](C)[C@H](O)[C@H](O[C@@H]3O[C@H](C)[C@H](O)[C@H](O)[C@H]3O)[C@H]2O)[C@H](O)[C@H]1O[C@@H]1O[C@H](C)[C@@H](O)[C@H](O)[C@H]1O`, for which the Activity result in data set [1] is given as “Non-toxic”. In addition, the half-inhibitory concentration (IC50) in data set [3], in data set [2] and in data set [4] was > 50 µM in each case.

These data come from ChEMBL document CHEMBL2331172, “Pyrrole and furan oligoglycosides from the starfish Asterina batheri and their inhibitory effect on the production of pro-inflammatory cytokines in lipopolysaccharide-stimulated bone marrow-derived dendritic cells” (Bioorg Med Chem Lett, 2013).
